{"source": "patent US20250255850A1", "about": "“PHARMACEUTICAL COMPOSITIONS FOR TREATING NEUROLOGICAL CONDITIONS” (YISSUM RESEARCH DEVELOPMENT COMPANY OF THE HEBREW …, priority 2021, published 2025)", "key": {"[1]": {"system": "Mutant mice (CNTNAP2 and SHANK3 mouse models)", "assay": "Sociability test, 7-NI-treated mutant mice (Example 3)", "assay_type": "in vivo", "details": "7-NI IP 80 mg/kg/day for 7 days; mutant mice vs vehicle", "procedure": "(§1) Behavioral testing started after 2 hours of treatment.\nThree-chambered sociability test (see, FIG. 4B): Sociability and preference for social novelty and social recognition were tested in a three-chambered apparatus. The subjected mouse was first placed in the central, neutral chamber and allowed to explore for 10 minutes with all the doors closed. Next, doors were opened and the mouse was allowed to freely explore the other two empty chambers (1 and 2) for an additional 10 minutes. Lack of side preference was confirmed during this habituation.\nTwo cylindrical wire cages were placed, one in chamber 1 and the other in chamber 2. For the sociability test, the test animal was introduced to the middle chamber and allowed to adjust for 5 minutes. Then, an unfamiliar mouse was introduced into a wire cage in one of the side-chambers, and the other side-chamber remained empty. The time spent by the test mouse exploring the wire cage with an unfamiliar mouse inside was recorded for 5 minutes.\n7-nitroindazole (7-NI) is a selective inhibitor of neuronal nitric oxide synthase. Mutant mice were administered with 7-NI […] (IP), 80 mg/kg/day for 7 days, as described hereinabove. […]"}, "[2]": {"system": "3-nitrotyrosine", "assay": "Western blot of 3-nitrotyrosine in cortical tissue, SHANK3 mutant group (M1)", "assay_type": "in vivo, mouse", "details": "SHANK3 mutant mice treated with 7-NI (M1+7-NI) vs M1", "procedure": "as §1\nTo further corroborate these findings, the expression of 3-nitrotyrosine in cortical tissue of the wild type (WT), compared with the SHANK3 mutant group (M1), and SHANK3 group treated with 7-NI (M1+7-NI), and in cortical tissue of the wild type (WT), compared with the CNTNAP2^(−/−) mutant group (M2), and the CNTNAP2^(−/−) mutant group treated with 7-NI (M2+7—NI) was tested, and the obtained data is presented in FIGS. 3C-D (for M1) and in FIGS. 3E-F (for M2)."}, "[3]": {"system": "3-nitrotyrosine", "assay": "Confocal microscopy of 3-nitrotyrosine in cortical neurons, SHANK3 model mice", "assay_type": "in vivo, mouse", "details": "cortical region, compared to neurons of untreated mice", "procedure": "FIGS. 3G-H present confocal microscopy images (FIG. 3G) and a quantitative bar graph (FIG. 3H) showing nitro-tyrosine in the cortical region of neurons of wild-type mice (WT), SHANK3 model mice (M1) and SHANK3 model mice treated with 7-NI (M1+7-NI).\n3-nitrotyrosine levels in were also evaluated by confocal microscopy of the cortical region in neurons of the tested mice, and the obtained data is presented in FIGS. 3G and 3H."}, "[4]": {"system": "SH-SY5Y cells", "assay": "Western blot of 3-nitrotyrosine, mTOR signaling pathway components and synaptophysin", "assay_type": "cell-based, human", "procedure": "Human NB SH-SY5Y cells were obtained from the American Type Culture Collection (ATCC) and maintained in Dulbecco's modified Eagle's medium (DMEM) and Ham's F-12 (1:1) supplemented with 10% fetal bovine serum, 2 mM L-glutamine, and 100 U/ml penicillin-G/100 […] streptomycin in a humidified atmosphere (37° C., 5% CO2). Cells were plated onto 25 cm^2 and 75 cm^2 plates at a density of 7.0×10^5 and 2.1×10^6 cells/cm^2 respectively for Western blotting (WB) and 1×10^5 for immunofluorescence. The SH-SY5Y cells were treated with 100 μM 7-nitroindazole (7-NI) for 24 hours (Fujibayashi et al., 2015). This concentration was confirmed in a dose-response experiment (FIG. 14A) using an MTT viability assay.\nSH-SY5Y cells were plated in 6 well plates, as well as on 22 mm^2 coverslips at a density of 6.0×10^4 cells/cm^2 and transfected with 20 nM nNOS siRNA (NOSIHSS1072, Invitrogen) for 24 hours, with the use of Lipofectamine RNAi MAX (56530, Invitrogen) according to the manufacturer's protocol. Then cells were washed with phosphate-buffered saline (PBS) and harvested for WB and fixed for immunofluorescence (Fujibayashi et al., 2015).\nCells were lysed in ice-cold RIPA buffer containing 50 mM Tris-HCl, 1% Nonidet P-40, 0.25% sodium deoxycholate, 150 mM NaCl, protease-, and phosphatase inhibitor cocktails, pH 7.4. After sonication, the lysates were centrifuged at 17,000 g for 30 minutes at 4° C., and the supernatant was collected. The protein concentrations were determined with the BCA protein assay. Proteins were resolved by SDS-PAGE, transferred to a PVDF membrane, and probed with the following antibodies: anti-pMTOR (rabbit, diluted 1:1000), anti-mTOR (rabbit, diluted 1:1000), anti-TSC2 (rabbit, diluted 1:1000), anti-nNOS (rabbit, diled 1:1000), anti-pAKT (rabbit, diluted 1:1000), anti-AKT (rabbit, diluted 1:1000), anti-pRPS6 (rabbit, diluted 1:1000), anti-RPS6 (mouse, diluted 1:1000), anti-synaptophysin (mouse, diluted 1:1000), anti-β-actin (rabbit, diluted 1:1000), anti-3-Nitrotyrosine (rabbit, diluted 1:5000) from Abcam. All primary antibodies, except anti-3-Nitrosine, were purchased from Cell Signaling Technology. The blots were then visualized using an enhanced chemiluminescence (ECL) system (Choi et al., 2018)."}, "[5]": {"assay": "Solubility of 7-NI in PBS", "assay_type": "physicochemical", "details": "phosphate buffer (PBS), aqueous buffer; 10 mM phosphate buffer pH 7.2"}, "[6]": {"molecular_target": "neuronal NOS (Homo sapiens, UniProt P29475)", "sequence (P29475 whole entry, species assumed)": "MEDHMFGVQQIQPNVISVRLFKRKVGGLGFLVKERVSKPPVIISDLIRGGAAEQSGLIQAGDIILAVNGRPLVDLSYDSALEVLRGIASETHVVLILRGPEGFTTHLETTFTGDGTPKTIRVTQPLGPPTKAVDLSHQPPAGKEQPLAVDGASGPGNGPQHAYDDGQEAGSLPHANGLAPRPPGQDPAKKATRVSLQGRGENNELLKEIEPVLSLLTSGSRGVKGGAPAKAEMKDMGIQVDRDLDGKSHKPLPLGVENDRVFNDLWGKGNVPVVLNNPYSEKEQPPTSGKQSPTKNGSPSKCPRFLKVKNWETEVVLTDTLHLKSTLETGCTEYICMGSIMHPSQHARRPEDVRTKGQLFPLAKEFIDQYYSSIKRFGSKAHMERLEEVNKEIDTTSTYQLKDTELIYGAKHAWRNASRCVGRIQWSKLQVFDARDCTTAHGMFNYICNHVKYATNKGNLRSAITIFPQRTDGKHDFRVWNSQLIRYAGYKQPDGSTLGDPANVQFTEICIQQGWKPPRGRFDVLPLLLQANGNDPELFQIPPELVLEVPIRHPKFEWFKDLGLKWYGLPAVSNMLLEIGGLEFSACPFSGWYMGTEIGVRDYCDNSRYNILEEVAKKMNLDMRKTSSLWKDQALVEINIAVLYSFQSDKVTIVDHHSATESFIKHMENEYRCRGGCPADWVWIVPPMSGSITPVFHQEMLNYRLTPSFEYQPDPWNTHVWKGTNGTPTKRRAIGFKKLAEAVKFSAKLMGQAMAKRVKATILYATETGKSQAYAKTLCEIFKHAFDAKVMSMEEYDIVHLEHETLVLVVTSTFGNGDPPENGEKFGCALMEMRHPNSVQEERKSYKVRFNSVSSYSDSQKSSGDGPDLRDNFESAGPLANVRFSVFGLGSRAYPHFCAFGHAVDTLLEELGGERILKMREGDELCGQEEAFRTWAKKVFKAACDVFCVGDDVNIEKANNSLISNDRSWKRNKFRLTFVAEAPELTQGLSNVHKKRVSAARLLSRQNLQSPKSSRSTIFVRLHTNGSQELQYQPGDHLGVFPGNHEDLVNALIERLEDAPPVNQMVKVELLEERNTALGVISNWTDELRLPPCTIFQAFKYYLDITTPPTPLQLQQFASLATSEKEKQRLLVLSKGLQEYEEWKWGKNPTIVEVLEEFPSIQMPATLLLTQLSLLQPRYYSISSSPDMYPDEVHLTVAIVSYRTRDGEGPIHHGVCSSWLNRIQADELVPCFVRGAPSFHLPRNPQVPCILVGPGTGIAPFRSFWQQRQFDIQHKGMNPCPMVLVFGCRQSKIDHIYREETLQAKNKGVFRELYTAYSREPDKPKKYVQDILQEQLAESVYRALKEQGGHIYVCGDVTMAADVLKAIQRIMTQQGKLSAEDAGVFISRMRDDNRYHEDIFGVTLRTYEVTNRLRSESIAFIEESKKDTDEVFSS", "details": "Pharm Res., 2001, 18, 1607-1612; cited from earlier work"}, "[7]": {"details": "cited from earlier work"}, "[8]": {"details": "7-NI 100 μM 24 hours or nNOS silencing"}}, "data": [{"smiles": "O=[N+]([O-])c1cccc2cn[nH]c12", "note": "[7-NI, 7-nitroindazole]", "values": [{"measurement": "time interacting with the stranger cage (sociability test)", "setting": "[1]", "value": "spent significantly more time interacting with the stranger cage"}, {"measurement": "expression of 3-Ntyr in cortical tissue", "setting": "[2]", "value": "reduced the expression of 3-Ntyr"}, {"measurement": "reduction of 3-nitrotyrosine levels in the neurons", "setting": "[3]", "value": "about 50%"}, {"measurement": "levels of synaptophysin (Syp, Western blot)", "setting": "[4]; 7-NI 100 μM 24 hours or genetic ablation of nNOS", "value": "significantly decreased the levels of synaptophysin"}, {"measurement": "3-Ntyr levels (Western blot)", "setting": "[4]; 7-NI 100 μM 24 hours or nNOS knockdown", "value": "halved"}, {"measurement": "levels of TSC-2 (Western blot)", "setting": "[4]; [8]", "value": "significant increase in the levels of TSC-2"}, {"measurement": "phosphorylation of RPS6 (Western blot)", "setting": "[4]; [8]", "value": "reduced"}, {"measurement": "phosphorylation of mTOR (Western blot)", "setting": "[4]; [8]", "value": "decrease in phosphorylation of mTOR"}, {"measurement": "phosphorylation of protein kinase-B (AKT) (Western blot)", "setting": "[4]; [8]", "value": "reduced"}, {"measurement": "solubility", "setting": "[5]", "value": 0.14, "unit": "mg/mL"}, {"measurement": "selectivity for neuronal NOS", "setting": "[6]", "value": 10, "unit": "fold"}, {"measurement": "solubility in aqueous medium", "setting": "[7]", "value": "very low solubility"}]}]}
